Measurements published in patent US12016901B2, “Tissue catalyzed growth of polymer as epithelial linings for therapy” (priority 2019, dated 2024).

Experiments:
catalase = biological target: T1, catalase (Sus scrofa, UniProt O62839); test: In vitro inhibition of catalase activity in tissue lysates; assay type: biochemical, pig; conditions: small intestinal lysates, inhibitor 20 mM, 6 hours, 4° C.
T1 construct: from tissue; host or cells: porcine small intestinal epithelium, homogenized in RIPA buffer (tissue lysate)
T1 sequence (O62839 2-527 limits assumed): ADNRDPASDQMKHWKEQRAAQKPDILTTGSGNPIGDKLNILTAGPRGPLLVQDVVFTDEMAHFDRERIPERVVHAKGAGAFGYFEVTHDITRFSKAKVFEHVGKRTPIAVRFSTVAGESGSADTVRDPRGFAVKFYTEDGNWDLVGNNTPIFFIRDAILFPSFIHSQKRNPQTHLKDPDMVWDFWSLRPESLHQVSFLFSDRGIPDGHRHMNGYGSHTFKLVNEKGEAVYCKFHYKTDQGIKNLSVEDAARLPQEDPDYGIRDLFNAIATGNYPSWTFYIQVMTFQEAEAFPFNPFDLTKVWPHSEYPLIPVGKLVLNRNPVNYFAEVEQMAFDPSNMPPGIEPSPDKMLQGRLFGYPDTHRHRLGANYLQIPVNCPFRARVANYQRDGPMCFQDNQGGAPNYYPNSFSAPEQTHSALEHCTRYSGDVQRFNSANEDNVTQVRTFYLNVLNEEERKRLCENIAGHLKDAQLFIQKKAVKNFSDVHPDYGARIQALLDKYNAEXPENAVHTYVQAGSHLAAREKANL
Protocol: Tissue lysate preparation. Epithelial tissues of the porcine gastrointestinal tract were dissected on ice. The outer mucus layers were removed by aspiration, and then the rinsed tissues [(with 1× phosphate-buffered saline (PBS)] were frozen by liquid nitrogen. Tissues (10 mg) were incubated in the ice-cold lysis buffer (600 μl, RIPA buffer mixed with protease and phosphatase inhibitor cocktail, Sigma-Aldrich) and homogenized to form tissue lysates. The total protein concentrations of tissue lysates were measured by using the bicinchoninic acid (BCA) assay.
In vitro inhibition of catalase activity. 3-amino-1,2,4-triazole was used as the inhibitor. Tissue lysates (10 mg/ml, 100 μl) were incubated in the inhibitor solution (20 mM) for 6 hours at 4° C.

in vivo = conditions: pig
Protocol: In vivo evolution of pharmacokinetics of the praziquantel-tissue-accelerated polymerization. Pigs were sedated, intubated, and maintained with isoflurane as described above. The gastric fluid was removed from the stomach before administration. […] Praziquantel without the tissue-accelerated polymerization was used as the control. Blood samples were collected from a marginal ear vein at designated time points. Serum samples were separated from blood by centrifugation (1800 G×10 min at 4° C.) and were stored at −80° C. for further analysis. […] Serum praziquantel concentration assessment. Praziquantel concentrations in serum from in vivo experiments were analyzed using Ultra-Performance Liquid Chromatography-Tandem Mass Spectrometry (UPLC-MS/MS). Analysis was performed on a Waters ACQUITY UPLC-I-Class System aligned with a Waters Xevo TQ-S mass spectrometer (Waters Corporation, Milford Mass.). Liquid chromatographic separation was performed on an Acquity UPLC BEH C18 (50 mm×2.1 mm, 1.7-μm particle size) column at 50° C. The mobile phase consisted of aqueous 0.1% formic acid, 10 mM ammonium formate solution (Mobile Phase A) and acetonitrile: 10 mM ammonium formate, 0.1% formic acid solution (95:5 v/v) (Mobile Phase B). […] The composition of 0% Mobile Phase A and 100% Mobile Phase B was held constant until 3.50 minutes. The composition returned to 80% Mobile Phase A at 3.51 minutes and was held at this composition until completion of the run, ending at 5.00 minutes, where it remained for column equilibration. The total run time was 5.00 minutes. […] Sample introduction and ionization was by electrospray ionization (ESI) in the positive ionization mode. Waters MassLynx 4.1 software was used for data acquisition and analysis. Stock solutions of praziquantel were prepared in methanol at a concentration of 500 μg/ml. […] Samples were vortexed, sonicated for 10 minutes, and centrifuged for 10 minutes at 13,000 rpm. 200 μl of supernatant was pipetted into a 96-well plate containing 200 μl of water. Finally, 1.00 μl was injected onto the UPLC-ESI-MS system for analysis.

AUC (in vivo; Yorkshire) [ng·h/mL]	concentration at 6 h (in vivo; Yorkshire) [ng/mL]	elimination phase (in vivo; Yorkshire) [h]	half-life (in vivo; Yorkshire) [min]	serum praziquantel concentration at 24 hours (in vivo)	SMILES	decrease of catalytic capacity of lysates (catalase)
					Nc1nc[nH]n1 [catalase-specific inhibitor, 3-amino-1,2,4-triazole]	around 80%
222	15.1	2 to 6	78	no drug was detected	O=C(C1CCCCC1)N1CC(=O)N2CCc3ccccc3C2C1 (stereo not drawn) [praziquantel control, Praziquantel]	
